Results taken from publication PMC13395416 (PLOS Pathogens, 2026).
Ends that are not written are not given here. * marks the point of attachment. Biotin = O=C1N[C@H]2[C@H](CS[C@H]2CCCCC(=O)*)N1

Legend:
SteC1-457 = target: T1, SteC1-457 (Salmonella enterica, UniProt D0ZIB5); details: 5 μM MYL12A, 100 μM ATP with 20 kBq [γ-32P]ATP, 100 nM kinase, 10 mM MgCl2, pH 7.5, 30 °C
T1 construct: gene steC

[1] = target: SteC_(210-429) WT, minimal active kinase domain (Salmonella Typhimurium strain 14028s, UniProt D0ZIB5 210-429); assay: BLI; details: both partners purified
Sequence of SteC_(210-429) WT, minimal active kinase domain (D0ZIB5 210-429): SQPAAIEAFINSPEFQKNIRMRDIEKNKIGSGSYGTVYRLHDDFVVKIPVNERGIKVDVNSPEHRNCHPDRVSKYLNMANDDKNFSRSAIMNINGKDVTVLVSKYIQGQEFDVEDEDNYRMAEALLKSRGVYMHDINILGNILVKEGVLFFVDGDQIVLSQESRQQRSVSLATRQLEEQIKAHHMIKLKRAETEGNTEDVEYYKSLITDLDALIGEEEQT

T1 sequence (D0ZIB5 whole entry): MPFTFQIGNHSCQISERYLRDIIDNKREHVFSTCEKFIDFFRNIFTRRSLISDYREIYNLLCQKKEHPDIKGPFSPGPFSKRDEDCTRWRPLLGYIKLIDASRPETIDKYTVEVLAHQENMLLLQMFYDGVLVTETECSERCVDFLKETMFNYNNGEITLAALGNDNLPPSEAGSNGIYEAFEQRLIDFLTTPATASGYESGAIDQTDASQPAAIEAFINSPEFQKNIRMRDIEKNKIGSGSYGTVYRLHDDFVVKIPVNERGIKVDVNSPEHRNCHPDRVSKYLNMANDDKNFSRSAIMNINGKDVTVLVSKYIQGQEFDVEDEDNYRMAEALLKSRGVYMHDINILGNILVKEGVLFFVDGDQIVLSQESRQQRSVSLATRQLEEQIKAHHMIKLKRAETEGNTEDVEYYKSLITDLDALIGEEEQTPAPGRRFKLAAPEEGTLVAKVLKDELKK

## Nc1ncnc2c1ncn2[C@@H]1O[C@H](COP(=O)(O)OP(=O)(O)OP(=O)(O)O)[C@@H](O)[C@H]1O [ATP]
SteC1-457
  radioactive kinase assay, SDS-PAGE autoradiography: SteC1-457 mediated phosphorylation of MYL12A

## Biotin-KGPPSSVPKSRHLTIKLTPAHSRK (peptide, UniProt O95466 190-213, looked up) [N-terminally biotinylated FMNL1 peptide (K190-K213)]
[1]
  Kd: 7.9 µM
